Measured values reported in patent publication US12157741B2, “Macrocyclic inhibitors of DYRK1A” (DANA-FARBER CANCER INSTITUTE, INC., priority 2018, dated 2024).
Where two headings read alike, the source gives them in different places.

Assays:
Assay type in all cases: binding
various enzymes [1] = target: various enzymes (Homo sapiens, UniProt Q8TDX7); details: compound 1 uM
Experimental: (§1) Ambit profiling was conducted in accordance with the manufacturer's instructions.

various enzymes [2] = target: various enzymes (Homo sapiens, UniProt P48730); details: compound 1 uM
Experimental: as §1

various enzymes [3] = target: various enzymes (Homo sapiens, UniProt Q9UEW8); details: compound 1 uM
Experimental: as §1

various enzymes [4] = target: various enzymes (Homo sapiens, UniProt P42336, E542K)
Experimental: as §1

various enzymes [5] = target: various enzymes (Homo sapiens, UniProt P14616); details: compound 1 uM
Experimental: as §1

various enzymes [6] = target: various enzymes (Homo sapiens, UniProt P0C1S8); details: compound 1 uM
Experimental: as §1

various enzymes [7] = target: various enzymes (Homo sapiens, UniProt Q92630); details: compound 1 uM
Experimental: as §1

various enzymes [8] = target: various enzymes (Homo sapiens, UniProt O15075); details: compound 1 uM
Experimental: as §1

various enzymes [9] = target: various enzymes (Homo sapiens, UniProt Q13164); details: compound 1 uM
Experimental: as §1

various enzymes [10] = target: various enzymes (Homo sapiens, UniProt Q9UIK4); details: compound 1 uM
Experimental: as §1

various enzymes [11] = target: various enzymes (Homo sapiens, UniProt P42684); details: compound 1 uM
Experimental: as §1

various enzymes [12] = target: various enzymes (Homo sapiens, UniProt Q86UX6); details: compound 1 uM
Experimental: as §1

various enzymes [13] = target: various enzymes (Homo sapiens, UniProt P42338); details: compound 1 uM
Experimental: as §1

various enzymes [14] = target: various enzymes (Homo sapiens, UniProt Q9C098); details: compound 1 uM
Experimental: as §1

various enzymes [15] = target: various enzymes (Homo sapiens, UniProt P16591); details: compound 1 uM
Experimental: as §1

various enzymes [16] = target: various enzymes (Homo sapiens, UniProt Q5S007); details: compound 1 uM
Experimental: as §1

various enzymes [17] = target: T1, various enzymes (Homo sapiens, UniProt O14757); details: compound 1 uM
T1 sequence (O14757 1-476): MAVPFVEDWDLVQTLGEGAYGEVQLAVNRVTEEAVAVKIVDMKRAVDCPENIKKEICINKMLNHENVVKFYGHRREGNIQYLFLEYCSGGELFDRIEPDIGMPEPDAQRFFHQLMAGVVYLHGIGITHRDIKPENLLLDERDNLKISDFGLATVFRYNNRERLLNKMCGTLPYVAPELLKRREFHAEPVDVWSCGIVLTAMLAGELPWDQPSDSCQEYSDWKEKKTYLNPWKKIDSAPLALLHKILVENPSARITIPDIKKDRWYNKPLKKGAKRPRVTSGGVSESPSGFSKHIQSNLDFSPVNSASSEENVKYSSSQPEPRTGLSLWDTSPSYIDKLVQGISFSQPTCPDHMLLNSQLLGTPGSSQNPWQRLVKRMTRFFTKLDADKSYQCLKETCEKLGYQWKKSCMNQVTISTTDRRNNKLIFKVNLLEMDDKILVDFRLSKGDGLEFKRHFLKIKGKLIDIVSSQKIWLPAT
Experimental: as §1

various enzymes [18] = target: various enzymes (Homo sapiens, UniProt P27037); details: compound 1 uM
Experimental: as §1

various enzymes [19] = target: various enzymes (Homo sapiens, UniProt Q8IYT8); details: compound 1 uM
Experimental: as §1

various enzymes [20] = target: various enzymes (Homo sapiens, UniProt Q13237); details: compound 1 uM
Experimental: as §1

various enzymes [21] = target: various enzymes (Homo sapiens, UniProt Q9HAZ1); details: compound 1 uM
Experimental: as §1

various enzymes [22] = target: various enzymes (Homo sapiens, UniProt Q02779); details: compound 1 uM
Experimental: as §1

various enzymes [23] = target: various enzymes (Homo sapiens, UniProt Q9P289); details: compound 1 uM
Experimental: as §1

various enzymes [24] = target: various enzymes (Homo sapiens, UniProt Q9UQB9); details: compound 1 uM
Experimental: as §1

various enzymes [25] = target: various enzymes (Homo sapiens, UniProt Q06418); details: compound 1 uM
Experimental: as §1

various enzymes [26] = target: various enzymes (Homo sapiens, UniProt O75716); details: compound 1 uM
Experimental: as §1

various enzymes [27] = target: various enzymes (Homo sapiens, UniProt Q8N5S9); details: compound 1 uM
Experimental: as §1

various enzymes [28] = target: various enzymes (Homo sapiens, UniProt Q14164); details: compound 1 uM
Experimental: as §1

various enzymes [29] = target: various enzymes (Homo sapiens, UniProt Q8NG66); details: compound 1 uM
Experimental: as §1

various enzymes [30] = target: various enzymes (Homo sapiens, UniProt Q13163); details: compound 1 uM
Experimental: as §1

various enzymes [31] = target: various enzymes (Homo sapiens, UniProt Q9UM73, C1156Y)
Experimental: as §1

various enzymes [32] = target: various enzymes (Homo sapiens, UniProt P08631); details: compound 1 uM
Experimental: as §1

various enzymes [33] = target: various enzymes (Homo sapiens, UniProt O75676); details: compound 1 uM
Experimental: as §1

various enzymes [34] = target: various enzymes (Homo sapiens, UniProt P35590); details: compound 1 uM
Experimental: as §1

various enzymes [35] = target: various enzymes (Homo sapiens, UniProt P28482); details: compound 1 uM
Experimental: as §1

various enzymes [36] = target: various enzymes (Homo sapiens, UniProt Q96BR1); details: compound 1 uM
Experimental: as §1

various enzymes [37] = target: various enzymes (Homo sapiens, UniProt P00519); details: compound 1 uM
Experimental: as §1

Chain of various enzymes (Homo sapiens, UniProt P00519) (P00519 whole entry): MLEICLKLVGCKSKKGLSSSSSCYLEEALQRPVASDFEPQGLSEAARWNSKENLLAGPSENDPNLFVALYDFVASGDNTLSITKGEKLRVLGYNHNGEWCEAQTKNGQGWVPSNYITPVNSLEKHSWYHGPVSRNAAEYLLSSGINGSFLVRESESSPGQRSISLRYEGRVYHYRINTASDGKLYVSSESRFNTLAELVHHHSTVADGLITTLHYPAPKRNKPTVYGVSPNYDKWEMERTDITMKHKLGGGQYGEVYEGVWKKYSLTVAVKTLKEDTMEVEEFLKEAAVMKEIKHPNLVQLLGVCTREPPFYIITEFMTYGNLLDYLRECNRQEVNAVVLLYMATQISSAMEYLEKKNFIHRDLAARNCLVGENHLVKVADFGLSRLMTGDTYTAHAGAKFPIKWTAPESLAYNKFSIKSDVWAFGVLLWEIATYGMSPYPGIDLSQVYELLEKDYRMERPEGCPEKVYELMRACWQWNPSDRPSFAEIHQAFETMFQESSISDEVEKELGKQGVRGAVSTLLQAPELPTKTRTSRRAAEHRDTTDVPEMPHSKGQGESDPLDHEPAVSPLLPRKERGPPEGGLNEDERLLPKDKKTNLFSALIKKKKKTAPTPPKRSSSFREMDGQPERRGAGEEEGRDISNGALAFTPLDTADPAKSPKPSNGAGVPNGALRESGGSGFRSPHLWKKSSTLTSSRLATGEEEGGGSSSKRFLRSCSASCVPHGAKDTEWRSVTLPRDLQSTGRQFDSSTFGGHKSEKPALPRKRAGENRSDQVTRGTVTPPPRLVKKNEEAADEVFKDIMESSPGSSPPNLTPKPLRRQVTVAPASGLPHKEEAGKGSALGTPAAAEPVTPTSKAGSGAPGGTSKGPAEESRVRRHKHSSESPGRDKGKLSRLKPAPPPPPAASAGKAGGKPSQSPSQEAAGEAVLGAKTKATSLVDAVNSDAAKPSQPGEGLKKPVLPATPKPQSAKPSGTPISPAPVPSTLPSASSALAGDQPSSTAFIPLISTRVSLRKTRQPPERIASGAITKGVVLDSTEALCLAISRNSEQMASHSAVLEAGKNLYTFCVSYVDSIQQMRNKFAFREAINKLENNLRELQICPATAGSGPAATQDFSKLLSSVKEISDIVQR
Chain of various enzymes (Homo sapiens, UniProt O75676) (O75676 whole entry): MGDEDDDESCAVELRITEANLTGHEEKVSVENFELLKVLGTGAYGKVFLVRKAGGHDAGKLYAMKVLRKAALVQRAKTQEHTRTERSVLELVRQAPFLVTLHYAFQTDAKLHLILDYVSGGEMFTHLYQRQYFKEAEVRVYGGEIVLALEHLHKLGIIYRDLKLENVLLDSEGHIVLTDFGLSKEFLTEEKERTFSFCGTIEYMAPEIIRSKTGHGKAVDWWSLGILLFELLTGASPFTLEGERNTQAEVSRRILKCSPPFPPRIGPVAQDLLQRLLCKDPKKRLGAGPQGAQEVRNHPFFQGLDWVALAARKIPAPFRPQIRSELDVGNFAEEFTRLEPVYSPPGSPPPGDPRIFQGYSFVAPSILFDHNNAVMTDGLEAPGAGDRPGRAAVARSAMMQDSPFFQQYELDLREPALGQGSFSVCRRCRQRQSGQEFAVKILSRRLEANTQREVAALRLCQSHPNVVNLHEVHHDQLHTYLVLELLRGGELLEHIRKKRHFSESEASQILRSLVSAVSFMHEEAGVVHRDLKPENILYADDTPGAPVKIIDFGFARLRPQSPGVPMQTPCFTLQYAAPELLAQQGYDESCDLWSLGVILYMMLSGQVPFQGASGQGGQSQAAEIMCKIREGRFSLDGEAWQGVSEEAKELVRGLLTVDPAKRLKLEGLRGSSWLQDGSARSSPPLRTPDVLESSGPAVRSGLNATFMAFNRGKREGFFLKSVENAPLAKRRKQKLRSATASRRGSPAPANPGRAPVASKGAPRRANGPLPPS
Chain of various enzymes (Homo sapiens, UniProt Q5S007) (Q5S007 whole entry): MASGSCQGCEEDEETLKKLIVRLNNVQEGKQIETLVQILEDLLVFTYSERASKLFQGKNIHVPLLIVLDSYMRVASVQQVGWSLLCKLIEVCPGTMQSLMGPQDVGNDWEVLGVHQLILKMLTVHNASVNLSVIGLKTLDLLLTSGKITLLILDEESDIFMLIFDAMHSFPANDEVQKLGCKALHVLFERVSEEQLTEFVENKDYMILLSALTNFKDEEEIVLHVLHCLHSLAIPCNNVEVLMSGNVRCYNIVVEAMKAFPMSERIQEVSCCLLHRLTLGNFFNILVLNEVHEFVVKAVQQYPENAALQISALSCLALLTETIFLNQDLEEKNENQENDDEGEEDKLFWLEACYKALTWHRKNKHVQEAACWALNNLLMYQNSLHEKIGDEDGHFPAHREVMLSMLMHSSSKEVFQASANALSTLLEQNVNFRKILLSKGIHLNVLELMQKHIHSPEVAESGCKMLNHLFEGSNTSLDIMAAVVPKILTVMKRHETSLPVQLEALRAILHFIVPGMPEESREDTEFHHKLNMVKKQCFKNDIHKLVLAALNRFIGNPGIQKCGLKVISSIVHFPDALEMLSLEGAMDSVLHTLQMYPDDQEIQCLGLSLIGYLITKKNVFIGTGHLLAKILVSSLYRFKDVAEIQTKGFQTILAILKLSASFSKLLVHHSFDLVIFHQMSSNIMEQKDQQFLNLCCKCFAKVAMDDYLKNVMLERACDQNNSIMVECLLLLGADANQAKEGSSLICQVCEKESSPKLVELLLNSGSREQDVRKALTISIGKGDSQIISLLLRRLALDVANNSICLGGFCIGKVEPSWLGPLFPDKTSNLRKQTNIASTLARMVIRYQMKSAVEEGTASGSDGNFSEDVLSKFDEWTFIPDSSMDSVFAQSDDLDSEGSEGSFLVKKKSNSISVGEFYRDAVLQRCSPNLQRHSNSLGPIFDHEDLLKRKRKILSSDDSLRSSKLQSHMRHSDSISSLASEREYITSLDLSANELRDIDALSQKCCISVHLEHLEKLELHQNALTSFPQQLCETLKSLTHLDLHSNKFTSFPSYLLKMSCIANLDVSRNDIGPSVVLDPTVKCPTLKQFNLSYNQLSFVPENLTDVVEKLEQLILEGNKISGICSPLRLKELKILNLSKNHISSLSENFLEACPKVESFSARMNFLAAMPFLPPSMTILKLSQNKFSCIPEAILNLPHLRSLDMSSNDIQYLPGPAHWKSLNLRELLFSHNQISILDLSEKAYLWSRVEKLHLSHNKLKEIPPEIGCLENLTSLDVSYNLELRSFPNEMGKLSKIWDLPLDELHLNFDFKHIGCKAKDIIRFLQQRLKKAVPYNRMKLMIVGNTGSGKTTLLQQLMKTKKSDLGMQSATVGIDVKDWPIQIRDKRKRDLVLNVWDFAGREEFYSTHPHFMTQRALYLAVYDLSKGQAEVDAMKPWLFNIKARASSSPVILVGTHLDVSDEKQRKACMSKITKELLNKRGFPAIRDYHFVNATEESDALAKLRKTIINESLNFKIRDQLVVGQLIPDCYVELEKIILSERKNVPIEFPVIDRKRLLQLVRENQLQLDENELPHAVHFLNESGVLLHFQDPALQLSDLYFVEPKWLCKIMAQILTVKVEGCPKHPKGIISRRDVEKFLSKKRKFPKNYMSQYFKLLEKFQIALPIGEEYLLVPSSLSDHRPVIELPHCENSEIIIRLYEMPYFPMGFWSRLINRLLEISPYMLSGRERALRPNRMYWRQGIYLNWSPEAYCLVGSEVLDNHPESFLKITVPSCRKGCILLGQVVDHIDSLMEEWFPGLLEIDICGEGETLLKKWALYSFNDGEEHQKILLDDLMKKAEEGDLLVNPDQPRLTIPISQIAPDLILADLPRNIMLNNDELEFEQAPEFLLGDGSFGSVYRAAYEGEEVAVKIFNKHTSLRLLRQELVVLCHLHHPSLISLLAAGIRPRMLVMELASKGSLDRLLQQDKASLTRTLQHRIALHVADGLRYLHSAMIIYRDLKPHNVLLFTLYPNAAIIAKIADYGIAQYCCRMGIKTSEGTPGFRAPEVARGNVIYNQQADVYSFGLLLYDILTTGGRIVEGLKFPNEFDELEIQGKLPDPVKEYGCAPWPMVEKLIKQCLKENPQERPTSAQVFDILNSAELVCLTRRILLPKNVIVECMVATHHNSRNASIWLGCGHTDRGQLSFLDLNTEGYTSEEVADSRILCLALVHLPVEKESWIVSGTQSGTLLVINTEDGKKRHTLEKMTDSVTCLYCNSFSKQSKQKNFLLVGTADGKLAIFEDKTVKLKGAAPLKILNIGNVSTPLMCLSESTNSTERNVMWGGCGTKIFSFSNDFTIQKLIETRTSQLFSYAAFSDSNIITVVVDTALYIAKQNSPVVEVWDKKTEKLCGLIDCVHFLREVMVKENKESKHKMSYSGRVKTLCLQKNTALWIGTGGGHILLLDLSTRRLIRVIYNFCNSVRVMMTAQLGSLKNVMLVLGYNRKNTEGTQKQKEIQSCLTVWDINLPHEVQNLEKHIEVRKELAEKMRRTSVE
Chain of various enzymes (Homo sapiens, UniProt Q9UQB9) (Q9UQB9 whole entry): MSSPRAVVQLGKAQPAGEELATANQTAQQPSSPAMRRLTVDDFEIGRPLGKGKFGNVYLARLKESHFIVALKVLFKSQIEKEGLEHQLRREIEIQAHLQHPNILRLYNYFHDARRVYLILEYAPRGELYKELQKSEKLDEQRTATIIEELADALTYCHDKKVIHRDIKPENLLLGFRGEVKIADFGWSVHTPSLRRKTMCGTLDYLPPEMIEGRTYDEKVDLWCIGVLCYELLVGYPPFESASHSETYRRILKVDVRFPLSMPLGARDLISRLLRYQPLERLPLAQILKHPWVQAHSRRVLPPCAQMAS
Chain of various enzymes (Homo sapiens, UniProt O75716) (O75716 whole entry): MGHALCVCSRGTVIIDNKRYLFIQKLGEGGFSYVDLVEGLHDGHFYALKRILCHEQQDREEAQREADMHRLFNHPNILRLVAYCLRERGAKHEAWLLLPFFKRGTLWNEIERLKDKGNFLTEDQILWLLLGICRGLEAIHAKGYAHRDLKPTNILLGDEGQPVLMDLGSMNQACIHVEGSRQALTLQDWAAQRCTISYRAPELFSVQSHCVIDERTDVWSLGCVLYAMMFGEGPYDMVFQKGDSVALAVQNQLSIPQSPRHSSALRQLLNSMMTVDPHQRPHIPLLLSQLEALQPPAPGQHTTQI

Structure (SMILES)	Ambit profiling: NEK7 (various enzymes [1])	Ambit profiling: STK39 (various enzymes [3])	Ambit profiling: INSRR (various enzymes [5])	Ambit profiling: WEE2 (various enzymes [6])	Ambit profiling: DYRK2 (various enzymes [7])	Ambit profiling: DCAMKL1 (various enzymes [8])	Ambit profiling: ERK5 (various enzymes [9])	Ambit profiling: DAPK2 (various enzymes [10])	Ambit profiling: ABL2 (various enzymes [11])	Ambit profiling: YANK3 (various enzymes [12])	Ambit profiling: PIK3CB (various enzymes [13])	Ambit profiling: DCAMKL3 (various enzymes [14])	Ambit profiling: FER (various enzymes [15])	Ambit profiling: LRRK2 (various enzymes [16])	Ambit profiling: CHEK1 (various enzymes [17])	Ambit profiling: ACVR2A (various enzymes [18])	Ambit profiling: ULK2 (various enzymes [19])	Ambit profiling: PRKG2 (various enzymes [20])	Ambit profiling: CLK4 (various enzymes [21])	Ambit profiling: MLK2 (various enzymes [22])	further results
CC(C)N1Cc2nn(C)cc2-c2cnc3[nH]cc(c3c2)-c2cn(nc2C(F)(F)F)CCCC1=O [Compound 45, (Z)-5-isopropyl-31-methyl-13-(trifluoromethyl)-11H,21H,31H-5-aza-2(3,5)-pyrrolo[2,3-b]pyridina-1(4,1),3(4,3)-dipyrazolacyclononaphan-6-one]	97	98	51	100	25	80	100	100	42	100	100	19	49	44	100	100	56	100	19	36	Ambit profiling: CSNK1D (various enzymes [2]): 28; Ambit profiling: PIK3CA(E542K) (various enzymes [4]; compound 1 uM): 98; Ambit profiling: MST4 (various enzymes [23]): 24; Ambit profiling: AURKC (various enzymes [24]): 20; Ambit profiling: TYRO3 (various enzymes [25]): 87; Ambit profiling: STK16 (various enzymes [26]): 1.9; Ambit profiling: CAMKK1 (various enzymes [27]): 3.6; Ambit profiling: IKK-epsilon (various enzymes [28]): 40; Ambit profiling: NEK11 (various enzymes [29]): 100; Ambit profiling: MEK5 (various enzymes [30]): 11; Ambit profiling: ALK(C1156Y) (various enzymes [31]; compound 1 uM): 16; Ambit profiling: HCK (various enzymes [32]): 24; Ambit profiling: RPS6KA4(Kin.Dom.1-N-terminal) (various enzymes [33]): 98; Ambit profiling: RPS6KA4(Kin.Dom.2-C-terminal) (various enzymes [33]): 100; Ambit profiling: TIE1 (various enzymes [34]): 7.2; Ambit profiling: ERK2 (various enzymes [35]): 100; Ambit profiling: SGK3 (various enzymes [36]): 30; Ambit profiling: ABL1-nonphosphorylated (various enzymes [37]): 20; Ambit profiling: ABL1-phosphorylated (various enzymes [37]): 9
COc1c2c(nn1C)CN(C(C)C)C(=O)CCCn1cc(c(C(F)(F)F)n1)-c1c[nH]c3ncc-2cc13 [Compound 50, (Z)-5-isopropyl-35-methoxy-31-methyl-13-(trifluoromethyl)-11H,21H,31H-5-aza-2(3,5)-pyrrolo[2,3-b]pyridina-1(4,1),3(4,3)-dipyrazolacyclononaphan-6-one]	68	100	56	73	56	54	70	67	22	74	100	56	10	50	100	96	96	87	17	60	Ambit profiling: CSNK10 (various enzymes [2]): 11; Ambit profiling: PIK3CA(E542K) (various enzymes [4]): 85; Ambit profiling: MST4 (various enzymes [23]): 60; Ambit profiling: AURKC (various enzymes [24]): 39; Ambit profiling: TYRO3 (various enzymes [25]): 99; Ambit profiling: STK16 (various enzymes [26]): 12; Ambit profiling: CAMKK1 (various enzymes [27]): 8; Ambit profiling: IKK-epsilon (various enzymes [28]): 19; Ambit profiling: NEK11 (various enzymes [29]): 94; Ambit profiling: MEK5 (various enzymes [30]): 0; Ambit profiling: ALK(C1156Y) (various enzymes [31]): 26; Ambit profiling: HCK (various enzymes [32]): 8.1; Ambit profiling: RPS6KA4(Kin.Dom.1-N-terminal) (various enzymes [33]): 62; Ambit profiling: RPS6KA4(Kin.Dom.2-C-terminal) (various enzymes [33]): 100; Ambit profiling: TIE1 (various enzymes [34]): 9.2; Ambit profiling: ERK2 (various enzymes [35]): 87; Ambit profiling: SGK3 (various enzymes [36]): 50; Ambit profiling: ABL1-nonphosphorylated (various enzymes [37]): 11; Ambit profiling: ABL1-phosphorylated (various enzymes [37]): 3.8
